Publication PMC7606276, “The Antibacterial Effects of New N-Alkylpyridinium Salts on Planktonic and Biofilm Bacteria” (Frontiers in Microbiology, 2020)
Like-named read-outs stand apart in the source and are kept apart here.

Columns and labels:
[1] = tested on: CHO-K1 cells; test: MTT cell viability assay on CHO-K1 cells; assay type: cell-based, Chinese hamster; conditions: 24 h exposure
Description: Standard MTT assay (3-(4,5-dimethylthiazol-2-yl)-2,5-diphenyltetrazolium bromide; Sigma-Aldrich, Prague, Czechia) was used according to the manufacturer’s protocol on the CHO-K1 (Chinese hamster ovary, ECACC, Salisbury, United Kingdom) in order to compare the effect of different compounds within the series. The cells were cultured according to ECACC recommended conditions and seeded in a density of 8000 per well as described previously ([Soukup et al., 2020]). […] Thereafter, CHO-K1 cells were exposed to two-fold diluted series A, B, C or ten-fold diluted sodium hypochlorite for 24 h. Then the medium was replaced by a medium containing 0.5 mg/ml of MTT and the cells were allowed to produce formazan for approximately 3 h under surveillance. Thereafter, the medium with MTT was removed and crystals of formazan were dissolved in DMSO (100 μl/well). Cell viability was assessed spectrophotometrically by the amount of formazan produced. The absorbance was measured at 570 nm on Synergy HT (BioTek, Winooski, VT, United States). IC50 (half maximal inhibitory concentration) was then calculated from the control – subtracted triplicates using non-linear regression (four parameters) by GraphPad Prism 5.03 or 7.03 software (GraphPad Software Inc., San Diego, CA, United States). Final IC50 and SEM (standard error of the mean) values were obtained as a mean of three independent measurements.

[2] = tested on: E. faecalis biofilms on titanium surface; test: Biofilm susceptibility assay, live/dead staining CLSM; assay type: cell-based, Enterococcus faecalis; conditions: for biofilm surface coverage change during the treatment: 1, 3 and 60 min of treatment; for proportion of live cells in biofilm: after 60 min of treatment
Description: To grow the biofilms, an overnight culture of E. faecalis (average viable bacterial concentration of 1 × 10^8 CFU/ml) was diluted 100-fold in BHI. E. faecalis biofilms were formed on titanium radial disks (commercially pure titanium, grade 2) with 7 mm diameter and 1 mm thickness. Prior to the experiments all disks were sandblasted (FerroEcoBlast Europe; Microblast ceramic beads B120) to expose fresh titanium surface, cleaned in 70% ethanol and autoclaved at 134°C for 20 min. The biofilms were grown for 3 days at 37°C ± 1°C without shaking or changing of media to achieve a surface coverage of approximately 25% and a surface bacterial density of ∼1.5 × 10^11 bacteria […]. Biofilms grown on a titanium surface were exposed to 1.5 ml of A14, B14, and C14 dissolved in BHI for 1, 3, and 60 min. After treatment the individual disks were rinsed with saline solution to remove QACs as well as unattached bacteria. In laser treated biofilms samples were treated with QACs for 1 min followed by 10 s of Er:YAG – SSP laser treatment. The LightWalker Er:YAG (Fotona, Ljubljana, Slovenia) was set with the following parameters: laser wavelength 2940 nm; contact handpiece H14, Flat Sweeps fiber tip 400/14 positioned 5 mm above the biofilm disk, energy 20 mJ, frequency 15 Hz, water off, air off, single pulse modality – SSP (super short pulse – 50 μs). The titanium disks with their biofilm were positioned at the bottom of cylindrical irrigation system (7.5 mm diameter and 2 cm high) in the presence of 1.5 ml of either saline or the QAC dissolved in BHI. The antibacterial concentration was 250 μM which was the highest soluble QAC concentration in BHI broth. The rinsed biofilms were stained with 5 μL of premixed saline-diluted Syto 9 and propidium iodide stock solutions (1: 300) from LIVE/DEAD^TM BacLight^TM Bacterial Viability Kit L7012 (Thermo Fisher Scientific, Eugene, OR, United States). After 5 min of incubation in the dark the samples were observed by fluorescence microscope Zeiss Axio Observer Z1 equipped with confocal unit LSM 800 (CLSM). Z-stacks and tiles were taken at 100× or 20× magnification at three randomly selected view fields. Image acquisition and control of the microscope were performed with ZEN 2.3 (ZEISS GmbH, Germany). For the 100× magnification, blue 488 nm and yellow 561 nm lasers were set to 1% intensity, GaAsP PMT detectors to 700 V, pinhole to 71 μm, and the size of the acquired 8-bit images was 3476 × 3476 pixels. For the 20× magnification, blue 488 nm and yellow 561 nm lasers were set to 0.85% intensity, GaAsP PMT detectors to 700 V, pinhole to 50 μm and the size of acquired 8-bit images was 1306 × 1306 pixels. The typical Z-step of the Z-stack was 1 μm for 100× magnification and 3.26 μm for 20× magnification. The images were composed of four different view fields. A custom script was written (Image J) and used to evaluate the effect of treatment on the fraction of dead cells and biofilm surface coverage.

[3] = tested on: E. faecalis plankton and biofilm; test: Comparison of effectiveness in plankton and biofilm (matched fraction of dead cells); assay type: cell-based, Enterococcus faecalis; conditions: for dilution in plankton needed to match the fraction of dead cells in the biofilm: high density E. faecalis suspension 2.4 × 10^9 CFU/mL
Description: In plankton suspensions we were able to reach bactericidal concentration for all tested QACs. The situation was quite different in biofilms. The concentrations that work in plankton were not sufficient to kill all bacteria in the biofilm. […] Unfortunately, due to the solubility limit, it was not possible to increase the concentration of the QACs to concentrations that would kill all bacteria in the biofilm. Nevertheless, we can compare the effectiveness in plankton and biofilm if we decrease the concentration of biocide in the plankton to match the fraction of the dead cells in the biofilm. […] The experiment was performed at high density E. faecalis suspensions (2.4 × 10^9 CFU/mL) to mimic the high density of bacteria in a biofilm. By comparing QACs effectiveness at high initial planktonic densities we have largely eliminated the effect of the bacterial density and estimated the effect of biofilm induced changes on QACs sensitivity. One has to be careful, however, as bacterial cells in plankton differ from biofilm not only in cell density but also in cell metabolism and extracellular matrix viscoelasticity. To match the fraction of dead cells in the biofilm, the 10-fold dilution of compounds A14 and B14 were needed, whereas only 4-fold dilution of compound C14 was required. […] The activity of QACs in biofilms relative to plankton was two orders of magnitude […] than usually reported in the literature. Although our biofilms were mature, they were relatively thin (up to 10 μm) which may explain the relatively high efficiency of the QACs against biofilms. Similar observations have been made for S. mutans biofilms, where biofilm cells were only 8 times less susceptible to QACs compared to plankton bacteria ([López Pérez et al., 2017]).

[4] = tested on: human hepatoma cell line; parameters: method as in Christen et al., 2017; conditions: cytotoxicity, ref Christen et al., 2017; cited from earlier work
[5] = tested on: Human alveolar cells; parameters: method as in Kwon et al., 2019; conditions: cytotoxicity, ref Kwon et al., 2019; cited from earlier work
[6] = tested on: osteosarcoma cybrid cells; parameters: method as in Datta et al., 2017; conditions: cytotoxicity, ref Datta et al., 2017; cited from earlier work
[7] = tested on: Enterococcus faecalis DSM 16431; test: MBC of planktonic E. faecalis at different initial bacterial densities; assay type: cell-based
Description: The antibacterial susceptibility of planktonic bacteria was determined by the broth microdilution method according to the standard M07-A1 ([CLSI, 2018]) and optimized as described previously ([Marek et al., 2015]; [Dolezal et al., 2016]). All antibacterial compounds were dissolved in dimethyl sulfoxide (DMSO p.a., Sigma-Aldrich, Prague, Czechia). The wells of the 96-well microtiter plates contained 200 μL of Mueller-Hinton broth (MHB, HiMedia, Cadersky-Envitek, Prague, Czechia) with two-fold serial dilutions of the QACs (500–0.49 μmol/L) and were inoculated with 10 μL of exponentially grown bacterial suspension adjusted densitometrically to match 0.5 McFarland scale. […] The MBCs were determined for all prepared compounds as the concentrations that provided ≥99.9% decrease in the bacterial number after subculture of 10 μL aliquots from each microtiter well in a corresponding new microtiter plate where each well contained 200 μL of fresh MHB. The MBC was determined as the lowest concentration which corresponded to a well without visible bacterial growth after a further 24 h of incubation at 35 ± 1°C. To ensure that no bacteria had survived, the content of the well was inoculated on an agar plate to confirm the absence of bacterial growth.
To evaluate the effect of bacterial density on the antibacterial activity of the QACs, E. faecalis suspensions from an overnight culture were prepared in the range from 10^6 to 10^10 CFU/mL in Brain Heart Infusion broth (BHI, VWR International BVBA, Leuven, Belgium) by either diluting or concentrating bacterial suspensions. The MBCs corresponding to E. faecalis suspensions with different initial bacterial densities were determined only for the compound A14 in the concentration range between 500 and 0.49 μM prepared by 2-fold serial dilutions. The MBCs were evaluated as described above after the bacteria were exposed to the QACs for 3 min, 60 min or 24 h. The growth rate of tested E. faecalis suspensions at different initial bacterial densities was monitored every 30 min during 7 h of incubation by measuring the optical density (OD600). The values were fitted with the logistic equation

In the case of `CCCCCCCCCCCC[n+]1ccccc1` [Compound A12, 1-dodecylpyridinium], the IC50 ([1]; Cricetulus griseus) is reported as 38.8 ± 0.9 µM.
`CCCCCCCCCCCC[n+]1cccc(Cl)c1.[Br-]` [Compound B12, 1-dodecyl-3-chloropyridinium bromide] showed an IC50 ([1]; Cricetulus griseus) of 25.5 ± 2.5 µM and a melting point of 68.5 to 69.2 °C.
For `CCCCCCCCCCCCCC[n+]1ccn(CCO)c1.[Br-]` [Compound C14, 3-tetradecyl-1-(2-hydroxyethyl)imidazolium bromide], the IC50 ([1]; Cricetulus griseus) was 1.19 ± 0.9 µM, the “biofilm surface coverage change during the treatment” value ([2]; 250 μM) was “did not change significantly” and the “fraction of dead cells in biofilm” value ([2]; after 1 min of treatment, 250 μM) was “majority of cells in the biofilm were dead”. The “fraction of dead bacteria in biofilm” value ([2]; after 3 min of treatment, 250 μM) was 86 ± 4%, the “proportion of live cells in biofilm” value ([2]; 250 μM) was 3% and the “resistance of biofilm bacteria compared to planktonic bacteria” value [3] was 4 fold. The “dilution in plankton needed to match the fraction of dead cells in the biofilm” value [3] was 4 fold.
For benzalkonium chloride, the EC50 [4] is listed as about 12.4 µM, the IC50 [5] is listed as about 14.8 µM and the IC50 [6] is listed as about 22.8 µM.
With `CCCCCCCCCCCCCCCC[n+]1cccc(Cl)c1.[Br-]` [Compound B16, 1-hexadecyl-3-chloropyridinium bromide] the IC50 ([1]; Cricetulus griseus) was 12.5 ± 1.1 µM and the melting point was 91.4 to 92.2 °C.
Work on `CCCCCCCCCCCCCCCC[n+]1ccn(CCO)c1` [Compound C16] yielded an IC50 ([1]; Cricetulus griseus) of 1.03 ± 1 µM and a melting point of 49.2 to 50.1 °C.
Work on `CCCCCCCCCCCCCC[n+]1ccccc1` [Compound A14] yielded an IC50 ([1]; Cricetulus griseus) of 24.7 ± 0.2 µM, an MBC ([7]; DSM16431, 0.05 h, 3 min exposure, initial CFU/mL 10^6, read-out: MBC 3 min) of 63 µM and an MBC ([7]; DSM16431, 0.05 h, 3 min exposure, initial CFU/mL 10^7, read-out: MBC 3 min) of 63 µM. It also gave an MBC ([7]; DSM16431, 0.05 h, 3 min exposure, initial CFU/mL 10^8, read-out: MBC 3 min) of 31 to 63 µM, an MBC ([7]; DSM16431, 0.05 h, 3 min exposure, initial CFU/mL 10^9, read-out: MBC 3 min) of 250 µM and an MBC ([7]; DSM16431, 0.05 h, 3 min exposure, initial CFU/mL 10^10, read-out: MBC 3 min) of over 250 µM. For the same molecule, the MBC ([7]; DSM16431, 1 h, 60 min exposure, initial CFU/mL 10^6, read-out: MBC 60 min) was 31 µM, the MBC ([7]; DSM16431, 1 h, 60 min exposure, initial CFU/mL 10^7, read-out: MBC 60 min) was 31 µM and the MBC ([7]; DSM16431, 1 h, 60 min exposure, initial CFU/mL 10^8, read-out: MBC 60 min) was 63 µM. It also gave an MBC ([7]; DSM16431, 1 h, 60 min exposure, initial CFU/mL 10^9, read-out: MBC 60 min) of 125 µM, an MBC ([7]; DSM16431, 1 h, 60 min exposure, initial CFU/mL 10^10, read-out: MBC 60 min) of 250 µM and an MBC ([7]; DSM16431, 24 h, 24 h exposure, initial CFU/mL 10^6, read-out: MBC 24 h) of 16 to 31 µM. For the same molecule, the MBC ([7]; DSM16431, 24 h, 24 h exposure, initial CFU/mL 10^7, read-out: MBC 24 h) was 16 to 31 µM, the MBC ([7]; DSM16431, 24 h, 24 h exposure, initial CFU/mL 10^8, read-out: MBC 24 h) was 31 µM and the MBC ([7]; DSM16431, 24 h, 24 h exposure, initial CFU/mL 10^9, read-out: MBC 24 h) was 31 to 63 µM. For the same molecule, the MBC ([7]; DSM16431, 24 h, 24 h exposure, initial CFU/mL 10^10, read-out: MBC 24 h) was 250 µM, the MBC ([7]; DSM16431, 24 h, after 24 h, 10^6 CFU/ml initial bacterial density, read-out: relative MBC value per bacterial cell) was 2.1e-05 µM and the MBC ([7]; DSM16431, 24 h, after 24 h, 10^10 CFU/ml initial bacterial density, read-out: relative MBC value per bacterial cell) was 2.7e-08 µM. For the same molecule, the “biofilm surface coverage change during the treatment” value ([2]; 250 μM) was “did not change significantly”, the “proportion of live cells in biofilm” value ([2]; 250 μM) was 18% and the “dilution in plankton needed to match the fraction of dead cells in the biofilm” value [3] was 10 fold.
With `CCCCCCCCCCCCCC[n+]1cccc(Cl)c1.[Br-]` [Compound B14, 1-tetradecyl-3-chloropyridinium bromide] the IC50 ([1]; Cricetulus griseus) was 17.2 ± 1.3 µM, the “biofilm surface coverage change during the treatment” value ([2]; 250 μM) was “did not change significantly” and the “proportion of live cells in biofilm” value ([2]; 250 μM) was 14%. For the same molecule, the “dilution in plankton needed to match the fraction of dead cells in the biofilm” value [3] was 10 fold.
In the case of `[Na+].[O-]Cl` [Sodium hypochlorite, reference compound], the IC50 [1] is reported as 6.45 ± 1.1 µM and the biofilm coverage ([2]; after 1 min of exposure, 3% V/V, positive control) is reported as “below 1%”.
Molecule `CCCCCCCCCCCC[n+]1ccn(CCO)c1` [Compound C12] has an IC50 ([1]; Cricetulus griseus) of 1.43 ± 3 µM.
